Data taken from publication PMC6934184, “Selective DNA-PKcs inhibition extends the therapeutic index of localized radiotherapy and chemotherapy” (The Journal of Clinical Investigation, 2019).

Molecular target: T1, MAP2K2 (MEK2) (Homo sapiens, UniProt P36507)
T1 construct: purchased Thermo Fisher Scientific (Life Technologies) SelectScreen
Assay: SelectScreen Z'LYTE
Type: biochemical
Conditions: ATP 100 µM
Summary of the method: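 Compound tested in SelectScreen activity assays, Z'LYTE for CSF1R, CDK1/cyclin B and MAP2K6 and Adapta for CAMK1. ATP for CAMK1 was listed as 10, and Km app was used for CSF1R. Results are expressed in percent.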

T1 sequence (P36507 whole entry): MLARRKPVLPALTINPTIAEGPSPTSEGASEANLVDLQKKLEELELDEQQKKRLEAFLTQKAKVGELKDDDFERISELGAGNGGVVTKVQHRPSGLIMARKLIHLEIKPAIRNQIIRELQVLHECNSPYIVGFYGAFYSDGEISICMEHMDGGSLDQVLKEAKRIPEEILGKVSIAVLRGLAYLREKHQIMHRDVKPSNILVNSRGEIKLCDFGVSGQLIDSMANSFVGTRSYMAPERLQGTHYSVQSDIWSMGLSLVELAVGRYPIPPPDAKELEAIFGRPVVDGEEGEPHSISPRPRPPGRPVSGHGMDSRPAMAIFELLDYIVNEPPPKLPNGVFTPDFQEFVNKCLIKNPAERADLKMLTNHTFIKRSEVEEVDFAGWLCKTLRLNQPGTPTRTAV

CN(C(=O)CN1CCOCC1)c1ccc2sc3c(-c4cccc5c(=O)cc(N6CC7CCC(C6)O7)oc45)cccc3c2c1 [NU5455]
inhibition at 1 µM: 3.9%
